Where a chain is given by its changes, count along the chain named. Values joined by “and” are separate entries in the source; they are usually repeats but may differ in a detail not shown here. Equal values may be shown once.
Experiments:
[1] = biological target: T1, I81R(3) BAK (Homo sapiens, UniProt Q16611, I81R); assay: Liposome permeabilization assay: BH3 peptide activation of I81R(3) BAK receptor; type: biochemical; settings: 50 nM mutant BAK; Suppl. Fig. 4f
T1 construct: C-terminus truncated recombinant human BAK containing C-terminal 6× histidine tag (MEAS-BAK); made in house; host or cells: E. coli T7 Express pLac I/Y
T1 sequence (Q16611 1-186 I81R limits assumed): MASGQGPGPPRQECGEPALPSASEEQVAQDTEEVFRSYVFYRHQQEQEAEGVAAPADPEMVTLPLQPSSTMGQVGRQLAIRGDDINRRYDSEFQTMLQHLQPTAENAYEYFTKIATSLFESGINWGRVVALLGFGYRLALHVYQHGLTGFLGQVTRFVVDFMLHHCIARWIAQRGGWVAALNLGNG
Method: We next compared activation of mutant BAK receptors by WT BID BH3 and WT BAK BH3 peptide ligands. At concentrations above 1 µM, both peptide ligands would activate WT or V74A(1) BAK (Supplementary Figs. 3e, 4d, e, and Supplementary Table 1).
We performed liposome permeabilization assays as previously described[43]–[46]. […] (nickel salt) [DGS NTA(Ni), 2.5 μM final concentration in each assay] (Avanti Polar Lipids). We prepared 12.5 mM fluorophore; 8-aminonaphthalene-1, 3, 6-trisulfonic acid, disodium salt (ANTS) and 45 mM quencher; p-xylene-bis-pyridiniumbromide (DPX) in LUV buffer (10 mM HEPES pH 6.8, 200 mM KCl and 5 mM MgCl2). We mixed the lipid film in ANTS/DPX solution by vortexing and sonication (~15 min) followed by extrusion through polycarbonate membrane of 2 μm pore size (Avanti Polar lipids) to generate homogenous large unilamellar vesicles (LUVs). We separated LUVs from free ANTS/DPX by S500 size exclusion chromatography and stored them at 4 °C in the dark. We prepared peptide and protein dilutions in 96-well black flat bottom plates (Costar) kept on ice. ANTS release from permeabilized liposomes causes an increase in fluorescence, which we monitored at 37 °C for 90 min using a CLARIOSTAR microplate reader (BMG Labtech) set at excitation and emission wavelengths of 360 and 530 nm, respectively. We normalized the data relative to maximum and minimum fluorescence induced by 3% CHAPS and buffer controls, respectively. We quantified liposome permabilization by integrating area under curve (AUC) of normalized traces based on the Simpson’s equation, and analyzed that data in Excel and GraphPad Prism. AUC measurements reflect the kinetic and extent of liposome permeabilization and provide quantitative means for comparison between different experimental conditions (e.g., BAK mutants with gross or partial variation in activity). Variability in permeabilization of different liposomes is common and our analyses compare among conditions investigated with the same liposomes. […]

[2] = biological target: T2, D83A(s) BAK (Homo sapiens, UniProt Q16611, D83A); assay: Liposome permeabilization assay: BH3 peptide activation of D83A(s) BAK receptor; type: biochemical; settings: for liposome permeabilization by 50 nM D83A(s) BAK receptor: 50 nM mutant BAK, Suppl. Fig. 4f; for EC50: EC50 of liposome permeabilization by 200 nM D83A(s) BAK, 200 nM D83A(s) BAK, Suppl. Fig. 3e, 4e
T2 construct: C-terminus truncated recombinant human BAK containing C-terminal 6× histidine tag (MEAS-BAK); made in house; host or cells: E. coli T7 Express pLac I/Y
T2 sequence (Q16611 1-186 D83A limits assumed): T1 sequence (Q16611 1-186 I81R limits assumed) with R81I, D83A
Method: We performed liposome permeabilization assays as previously described[43]-[46]. […] We mixed the lipid film in ANTS/DPX solution by vortexing and sonication (~15 min) followed by extrusion through polycarbonate membrane of 2 μm pore size (Avanti Polar lipids) to generate homogenous large unilamellar vesicles (LUVs). We separated LUVs from free ANTS/DPX by S500 size exclusion chromatography and stored them at 4 °C in the dark. We prepared peptide and protein dilutions in 96-well black flat bottom plates (Costar) kept on ice. […] We quantified liposome permabilization by integrating area under curve (AUC) of normalized traces based on the Simpson's equation, and analyzed that data in Excel and GraphPad Prism. AUC measurements reflect the kinetic and extent of liposome permeabilization and provide quantitative means for comparison between different experimental conditions (e.g., BAK mutants with gross or partial variation in activity). Variability in permeabilization of different liposomes is common and our analyses compare among conditions investigated with the same liposomes. Although the absolute permeabilization values may differ, the trends for the same conditions are always very similar between different liposomes.

[3] = biological target: T3, WT tevBAK (Homo sapiens, UniProt Q16611); assay: Isothermal titration calorimetry; type: binding; settings: 25 °C; single site binding model
T3 construct: To generate tevBAK (residues 22–186), we cleaved off the histidine tag with TEV protease; His tag (vector pNIC28-Bsa4) (N, cleaved yes); made in house; host or cells: E. coli T7 Express pLac I/Y
T3 sequence (Q16611 22-186): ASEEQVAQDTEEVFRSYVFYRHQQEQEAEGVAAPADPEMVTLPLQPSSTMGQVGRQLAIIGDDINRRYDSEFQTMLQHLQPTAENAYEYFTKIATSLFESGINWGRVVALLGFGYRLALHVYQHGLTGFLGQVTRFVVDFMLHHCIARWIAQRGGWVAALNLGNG
Method: Protein samples were exchanged into 20 mM HEPES, 100 mM NaCl and 1 mM TCEP prior to the experiment. Titrations were performed by first injecting 0.5 μl of 250 or 500 µM BID BH3 peptides into a solution of 20 or 50 µM BAK followed by additional 2 μl injections. […] Results were analyzed using Origin software (OriginLab) provided by MicroCal. Binding constants (KD) and thermodynamic parameters were calculated from the average of two or three individual titrations by fitting the data to a single site binding model using a nonlinear least-squares fitting algorithm.

CC[C@H](C)[C@H](NC(=O)[C@H](CO)NC(=O)[C@H](CCCNC(=N)N)NC(=O)[C@H](CC(=O)O)NC(=O)[C@H](CCSC)NC(=O)[C@H](CO)NC(=O)[C@H](CC(=O)O)NC(=O)CNC(=O)[C@@H](NC(=O)[C@H](CCC(N)=O)NC(=O)[C@H](C)NC(=O)[C@H](CC(C)C)NC(=O)[C@H](Cc1c[nH]cn1)NC(=O)[C@H](CCCNC(=N)N)NC(=O)[C@H](C)NC(=O)[C@@H](NC(=O)[C@H](CC(N)=O)NC(=O)[C@H](CCCNC(=N)N)NC(=O)[C@@H](NC(=O)[C@@H](NC(=O)[C@H](CC(=O)O)NC(=O)[C@H](CCC(=O)O)NC(C)=O)[C@@H](C)CC)[C@@H](C)CC)[C@@H](C)CC)C(C)C)C(N)=O [WT BID BH3, reference compound] was tested, and the “liposome permeabilization by 50 nM I81R(3) BAK receptor” value [1] was “neither peptide ligands could promote liposome permeabilization”, the “liposome permeabilization by 50 nM D83A(s) BAK receptor” value [2] was “neither peptide ligands could promote liposome permeabilization” and the EC50 [2] was 4 to 7 µM and 5 to 7 µM. The “ITC -T∆S” value [3] was 1.72 ± 0.46 kJ/mol, the “ITC ∆G” value [3] was -26.5 ± 0.17 kJ/mol and the “ITC ∆H” value [3] was -28.2 ± 0.29 kJ/mol.

In the case of CC[C@H](C)[C@H](NC(=O)[C@H](C)NC(=O)[C@H](CC(C)C)NC(=O)[C@H](CCC(N)=O)NC(=O)[C@H](CCCNC(=N)N)NC(=O)CNC(=O)[C@@H](NC(=O)[C@H](CCC(N)=O)NC(=O)CNC(=O)[C@H](CCSC)NC(=O)[C@@H](NC(=O)[C@H](CO)NC(=O)[C@H](CO)NC(C)=O)[C@@H](C)O)C(C)C)C(=O)N[C@H](C(=O)NCC(=O)N[C@@H](CC(=O)O)C(=O)N[C@@H](CC(=O)O)C(=O)N[C@H](C(=O)N[C@@H](CC(N)=O)C(=O)N[C@@H](CCCNC(=N)N)C(=O)N[C@@H](CCCNC(=N)N)C(=O)N[C@@H](Cc1ccc(O)cc1)C(N)=O)[C@@H](C)CC)[C@@H](C)CC [WT BAK BH3], the “liposome permeabilization by 50 nM I81R(3) BAK receptor” value [1] is reported as “neither peptide ligands could promote liposome permeabilization”, the “liposome permeabilization by 50 nM D83A(s) BAK receptor” value [2] is reported as “neither peptide ligands could promote liposome permeabilization” and the EC50 [2] is reported as 4 to 7 µM and 5 to 7 µM.
